Laboratory results as given in paper PMC6444592, “Citrullination of HP1γ chromodomain affects association with chromatin” (Epigenetics & Chromatin, 2019).

Experiments:
histone H3 = assay: citrullination of histone H3 by PADI4; assay type: biochemical; conditions: calcium, anti-H3R2-citrulline and Pan-Cit immunoblot
Method: For immunoblotting, cells were lysed in 2 × Laemmli buffer and sonicated in a water bath (Fisherbrand) for 3 min to shear genomic DNA, spun down at full speed in a microfuge for 15 min and incubated for 5 min at 95 °C. Proteins were resolved by SDS-PAGE, transferred to nitrocellulose membrane (Millipore) using wet transfer (transfer buffer: 192 mM glycine, 25 mM Tris.HCl pH8.8) and incubated in blocking solution (5% BSA in TBS containing 0.5% Tween-20 for citrulline sensitive antibodies and 5% non-fat milk powder in TBS containing 0.1% Tween-20 for all other antibodies) for 1 h at room temperature (RT). Membranes were incubated with primary antibody at 4 °C o/n and appropriate HRP-conjugated secondary antibody for 1 h at RT. Membranes were then incubated for enhanced chemiluminescence (ECL, Promega), and proteins were detected by exposure to X-ray film or using the ChemiDoc™ MP imaging system (Bio-Rad). Images were quantified using ImageJ analysis software. Primary antibodies diluted in blocking solution were used to detect citrullinated histone H3R2 (H3R2-Cit, Abcam ab176843 at 1:1000 dilution), HP1γ (Millipore 05-690 MAB clone 42s2 [16] at 1:1000 dilution), β-Tubulin (Abcam ab6046 at 1:1000 dilution) and peptidyl-citrulline (Millipore MABN328, clone F95 [48] at 1:1000 dilution). […]

methylated H3K9 = conditions: at gene promoters; cited from earlier work
Description: It is possible that PADI4 targets both H3R8 and HP1γ bound to the same H3N-terminal tail. The Nanog gene may represent an important example of such a locus, since chromatin immunoprecipitation experiments have shown that both HP1γ and PADI4 bind to its promoter and regulate gene expression in stem cells.

H1.2 = conditions: reprogramming and ground state pluripotent stem cells; cited from earlier work
Description: We previously identified a role for PADI4 during reprogramming and ground state pluripotent stem cells, where the deiminase regulates key pluripotency genes via a mechanism involving citrullination of H1.2. […] Here, we report that the chromodomain of HP1γ is also citrullinated in mESCs, at R38 and R39. […] Furthermore, mutations in HP1γ designed to mimic the loss of charge caused by citrullination inhibit binding ...

## Peptidylarginine deiminase 4 [PADI4]
Histone H3
  enzymatic activity of recombinant PADI4 on histone H3: confirmed by citrullination of histone H3
Methylated H3K9
  effect of H3R8 citrullination on HP1 binding to adjacent methylated H3K9: reduces the binding affinity of HP1 to adjacent methylated H3K9
H1.2
  effect of H1.2 citrullination: eviction from chromatin and global chromatin decompaction
